# What was measured:
# Assay type in all cases: functional, cell-based
# L1210 = assay: Cytotoxicity against mouse L1210 cells
# KB = assay: Cytotoxicity against human KB cells
# HL-60 = assay: Induction of apoptosis in human HL60 cells assessed as increase in caspase3 activity
structure (smiles),measurement,setting,value
CCCCCCCCCCCCCCC[C@H](OC(=O)[C@@H](CCCCN(O)C=O)NC(=O)[C@H]1COC(c2ccccc2O)=N1)[C@@H](C)C(=O)N[C@@H]1CCCCN(O)C1=O [BRASILIBACTIN A],IC50,L1210,0.02 µg/mL
same,IC50,KB,0.04 µg/mL
same,Activity,HL-60,Dose-dependent effect

# From ChEMBL document CHEMBL1158721, “Brasilibactin A, a cytotoxic compound from actinomycete Nocardia brasiliensis” (J Nat Prod, 2005)
